Blank lines part the entries; values can stand above or below the compound they belong to.
How the values were obtained:
HeLa cells [1] = test: MTT cell viability assay, HeLa; assay type: cell-based; conditions: Homo sapiens, 72 h
Experimental: Cell viability was assessed by using 3-(4,5-dimethylthiazol-2-y1)-2,5-diphenyltetrazolium bromide (MTT) assay (Sigma-Aldrich, Milan, Italy), as already reported. In brief, MCF-7 and HeLa cells (2 × 10^4 cells/well) were seeded in a 48-well plate and grown in complete medium overnight, then they were switched into DMEM-F12 supplemented with 2% FBS and treated with increasing concentrations (1, 10, 50, 75, and 100 µM) of different oxazolidin-2-ones derivatives (OA-OI) or doxorubicin for 72 h. Untreated cells were added with the vehicle (DMSO) and used as a control. After treatment, fresh MTT reagent (used at a final concentration of 0.5 mg/mL) was added, prolonging incubation for 2 h according to the manufacturer’s protocol. Absorbance at 570 nm was measured in each well, including controls, and every experiment was carried out in triplicate.
(§1) For each sample, mean absorbance was expressed as a percentage of the control and plotted vs. drug concentration, in order to determine the IC50 value (i.e., drug concentration able to decrease cell viability by 50% with respect to the control) for each cell line, generating a sigmoidal dose–response curve by the use of GraphPad Prism 7 software (GraphPad Inc., San Diego, CA, USA). Mean values and standard deviations (SD) of three independent experiments carried out in triplicate were reported. […]

MCF-10A cells [2] = test: MTT cell viability assay, MCF-10A; assay type: cell-based, human; conditions: for IC50: Homo sapiens, MCF-10A, 72 h
MCF-7 cells [3] = test: MTT cell viability assay, MCF-7; assay type: cell-based; conditions: Homo sapiens, MCF7, 72 h
Experimental: Cell viability was assessed by using 3-(4,5-dimethylthiazol-2-y1)-2,5-diphenyltetrazolium bromide (MTT) assay (Sigma-Aldrich, Milan, Italy), as already reported. […] Untreated cells were added with the vehicle (DMSO) and used as a control. After treatment, fresh MTT reagent (used at a final concentration of 0.5 mg/mL) was added, prolonging incubation for 2 h according to the manufacturer’s protocol. Absorbance at 570 nm was measured in each well, including controls, and every experiment was carried out in triplicate.
as §1

[4] = system: cytochrome c in HeLa cells; test: Western blot of cytochrome c in cytosolic and mitochondrial fractions, HeLa; assay type: cell-based, human; conditions: 30 µM, 24 h, vs control
Experimental: (§2) Both MCF-7 and HeLa cells were cultured in 100 mm dishes (1 × 10^7 cells/dish), added with the vehicle alone (DMSO) or treated for 24 h with 15 and 30 µM OI, respectively. Then, mitochondria extraction was performed as previously described. In brief, cells were harvested, resuspended in isolation buffer for cells (IBC, containing 200 mM sucrose, 10 mM Tris/MOPS, 1 mM EDTA/Tris, pH 7.4), and homogenized by a glass potter homogenizer. Nuclei and unbroken cells were removed by centrifugation (600× g for 10 min). Supernatants were centrifuged for 30 min at 10,000× g, obtaining upper cytosolic fractions and mitochondrial pellets; the latter were resuspended in RIPA buffer (PBS pH 7.4, 1% NP-40, 0.5% sodium deoxycholate, and 0.1% sodium dodecyl sulfate) containing a protease and phosphatase inhibitor cocktail (Sigma-Aldrich, Milan, Italy). Protein concentration was determined using Bio-Rad Protein Assay (Bio-Rad Laboratories, Hercules, CA, USA) and Western blotting was performed as next described.
(§3) Western blot analysis was conducted basically as previously reported. In detail, MCF-7 and HeLa cells were grown to 70–80% confluence, added to DMSO, or treated with 15 and 30 µM OI, respectively, for 24 h. In order to obtain total cell lysates, harvested cells were lysed using 200 μL of lysis buffer as previously reported. Cytosolic and mitochondrial fractions were isolated as already described. […]

MCF-10A cells [5] = test: Cell cycle analysis (PI staining, flow cytometry), MCF-10A; assay type: cell-based, human; conditions: 30 µM, 24 h
Experimental: (§4) In order to assess cell cycle analysis, MCF-7 and HeLa cells were seeded in 6-well plates, at a density of 2.5 × 10^5 cells/well, then they were added to DMSO or treated using 15 and 30 µM OI, respectively, for 24 h. MCF-10A were seeded as described before, then they were added to DMSO or treated using 30 µM OI, the highest concentration used for cancer cells, for 24 h. Next, cells were harvested by trypsinization, rinsed twice with cold PBS, and pelleted by centrifugation at 1500 rpm for 5 min. Pellets were re-suspended in 70% ice-cold ethanol for 30 min at 4 °C to perform cell fixation. Then, samples were rinsed twice with PBS and stained using a solution containing 3.8 mM sodium citrate (Sigma-Aldrich, Milan, Italy), 100 μg/mL RNAse (Sigma-Aldrich, Milan, Italy), 50 μg/mL propidium iodide (PI, Sigma-Aldrich, Milan, Italy), and 0.1% Igepal (Sigma-Aldrich, Milan, Italy) in PBS for 1 h at 37 °C. Subsequent cytofluorimetric analysis was achieved by BD FACSJazz™ Cell Sorter (Becton Dickinson, Franklin Lakes, NJ, USA).

[6] = system: procaspases -8 and -9 in HeLa cells; test: Western blot of procaspases -8 and -9, HeLa; assay type: cell-based, human; conditions: 30 µM, 24 and 72 h
Experimental: (§5) Western blot analysis was conducted basically as previously reported. […] In order to obtain total cell lysates, harvested cells were lysed using 200 μL of lysis buffer as previously reported. Cytosolic and mitochondrial fractions were isolated as already described. Identical amounts of proteins from total lysate, mitochondrial, or cytosolic fraction were resolved on SDS-polyacrylamide gel, blotted to nitrocellulose membrane, and probed with proper primary antibodies (Santa Cruz Biotechnology, Dallas, TX, USA). Immunoreactive products were identified by using ECL Western blotting detection system (Bio-Rad Laboratories, Hercules, CA, USA).

[7] = system: cyclin D1, CDK4, phosphorylated Rb in MCF-7 cells; test: Western blot of cell cycle regulators, MCF-7; assay type: cell-based, human; conditions: MCF-7, 15 µM, 24 and 72 h
Experimental: as §5

HeLa cells [8] = test: Cell cycle analysis (PI staining, flow cytometry), HeLa; assay type: cell-based, human; conditions: 30 µM, 24 h
Experimental: as §4

[9] = system: procaspases -8 and -9 in MCF-7 cells; test: Western blot of procaspases -8 and -9, MCF-7; assay type: cell-based, human; conditions: MCF-7, 15 µM, 24 and 72 h
Experimental: as §5

HeLa cells [10] = test: TUNEL assay, HeLa; assay type: cell-based, human; conditions: 30 µM, 72 h, control 10%
Experimental: (§6) Apoptosis was tested by enzymatic labeling of DNA strand breaks using terminal deoxynucleotidyl transferase-mediated deoxyuridine triphosphate nick end-labeling (TUNEL) assay, following the guidelines of the manufacturer (TUNEL assay kit, Promega, Madison, WI, USA). Briefly, MCF-7 and HeLa cells were added with DMSO or treated with 15 and 30 µM OI, respectively, for 72 h. MCF-10A were added to DMSO or treated using 30 µM OI, for 72 h. Next, nuclear staining was achieved using 0.2 mg/mL 4′,6- diamidino-2-phenylindole (DAPI, Sigma-Aldrich, Milan, Italy) and samples were examined using a fluorescent microscope (Olympus BX4 equipped with CSV1.14 software employing a CAMXC-30 for image acquisition). Images were representative of three independent experiments.

MCF-7 cells [11] = test: ROS production (CM-H2DCFDA, FACS), MCF-7; assay type: cell-based, human; conditions: 24 h
Experimental: (§7) Intracellular level of reactive oxygen species (ROS) was assessed by using CM-H2DCFDA (Invitrogen, Milan, Italy), a cell-permeable fluorogenic probe, which is deacetylated by intracellular esterases and can be oxidized in the presence of intracellular ROS, becoming highly fluorescent. MCF-7 and HeLa cells were seeded into 96-well tissue culture plates at a density of 5 × 10^4 cells/well and treated with 15 and 30 µM OI, respectively, for 24 h. Control cells were added with DMSO and processed at the same time. Then, cells were washed with PBS and stained in the dark with CM-H2DCFDA (diluted in PBS/CM to a final concentration of 1 μM) for 20 min at 37 °C. Next steps were also performed in the dark, in order to avoid probe oxidation. Cells were washed three times with PBS, harvested, re-suspended in PBS/CM, and fluorescence was measured by using Fortessa (BD Bioscience, San Jose, CA, USA). ROS levels were estimated by using mean fluorescent intensity of the viable cell population. Results were analyzed by the use of FlowJo software (Tree Star Inc., Ashland, OR, USA).

HeLa cells [12] = test: Mitochondrial staining (MitoTracker Orange / Deep-Red, FACS), HeLa; assay type: cell-based, human; conditions: 30 µM, 24 h
Experimental: (§8) Mitochondrial activity was assessed using MitoTracker Orange (Invitrogen, Milan, Italy), a fluorescent dye that enters mitochondria in a membrane potential-dependent way. Mitochondrial mass was determined using MitoTracker Deep-Red (Invitrogen, Milan, Italy), a far red-fluorescent dye that is largely used to label mitochondria. Both MCF-7 and HeLa cells were treated using 15 and 30 µM OI, respectively, for 24 h. Control cells were added with DMSO and simultaneously processed. Then, cells were incubated in the dark for 30–60 min at 37 °C with pre-warmed MitoTracker staining solution (diluted in PBS/CM to reach a final concentration of 10 nM). All the next steps were still carried out in the dark. Cells were rinsed in PBS, harvested, and re-suspended in 300 μL of PBS/CM. Cells were then examined by flow cytometry using Fortessa (BD Bioscience, San Jose, CA, USA). Data analysis was performed using FlowJo software (Tree Star Inc., Ashland, OR, USA).

MCF-10A cells [13] = test: TUNEL assay, MCF-10A; assay type: cell-based, human; conditions: 30 µM, 72 h
Experimental: as §6

MCF-7 cells [14] = test: Cell cycle analysis (PI staining, flow cytometry), MCF-7; assay type: cell-based, human; conditions: MCF-7, 15 µM, 24 h
Experimental: as §4

[15] = system: cytochrome c in MCF-7 cells; test: Western blot of cytochrome c in cytosolic and mitochondrial fractions, MCF-7; assay type: cell-based, human; conditions: MCF-7, 15 µM, 24 h, vs control
Experimental: as §2, §3

MCF-7 cells [16] = test: Mitochondrial staining (MitoTracker Orange / Deep-Red, FACS), MCF-7; assay type: cell-based, human; conditions: MCF-7, 15 µM, 24 h
Experimental: as §8

HeLa cells [17] = test: ROS production (CM-H2DCFDA, FACS), HeLa; assay type: cell-based, human; conditions: 24 h
Experimental: as §7

MCF-7 cells [18] = test: TUNEL assay, MCF-7; assay type: cell-based, human; conditions: MCF-7, 15 µM, 72 h; control 2.3%
Experimental: as §6

Compound: CCCCN1C(=O)O/C(=C/C(=O)N2CCOCC2)C1(C)CC (stereo not drawn) [OH]
- IC50 (HeLa cells [1]): 54.2 µM
- IC50 (MCF-10A cells [2]): 319 µM
- IC50 (MCF-7 cells [3]): 92.9 µM

Compound: CCCCN1C(=O)O/C(=C/C(=O)N2CCOCC2)C12CCCCC2 [OD]
- IC50 (HeLa cells [1]): 154 µM
- IC50 (MCF-10A cells [2]): 506 µM
- IC50 (MCF-7 cells [3]): 338 µM

Compound: CCN(CC)C(=O)/C=C1/OC(=O)N(Cc2ccccc2)C1(C)C [OI, (E)-2-(3-benzyl-4,4-dimethyl-2-oxooxazolidin-5-ylidene)-N,N-diethylacetamide]
- cytochrome c levels in the cytosolic fraction [4]: significant increases
- cytochrome c mitochondrial levels [4]: concomitant decreases
- effect on the cell cycle (MCF-10A cells [5]): did not evidence any noticeable effect
- expression level of activated caspase-8 [6]: unaffected
- proteolytic cleavage of pro-caspase-9 into its active form [6]: time-dependently activated
- CDK4 protein expression levels [7]: remained unaffected
- cyclin D1 protein content ([7]; time dependent): significantly reduced
- phosphorylated Rb protein content ([7]; time dependent): significantly reduced
- cells in the G1 phase (HeLa cells [8]): remarkable increase
- cells in the S phase (HeLa cells [8]): considerable decrease
- expression level of activated caspase-8 [9]: unaffected
- proteolytic cleavage of pro-caspase-9 into its active form [9]: time-dependently activated
- IC50 (HeLa cells [1]): 31.1 µM
- apoptotic rate (TUNEL-positive cells) (HeLa cells [10]): 53.2%
- ROS increase in the presence of NAC (MCF-7 cells [11]; MCF-7, 15 µM OI + NAC): no longer evident
- ROS generation (MCF-7 cells [11]; MCF-7, 15 µM, vs control): significantly stimulated
- IC50 (MCF-10A cells [2]): 351 µM
- anti-proliferative effect / cytotoxicity on non-tumorigenic MCF-10A cells (MCF-10A cells [2]; up to 72 h): no significant anti-proliferative effect
- mitochondrial mass (MitoTracker Deep-Red) (HeLa cells [12]): decrease
- mitochondrial membrane potential (MitoTracker Orange) (HeLa cells [12]): decrease
- mitochondrial membrane potential per mitochondria (ratio Orange vs. Deep-Red) (HeLa cells [12]): significantly decreased
- effect in TUNEL assay (MCF-10A cells [13]): did not evidence any noticeable effect
- increase of the percentage of cells in the G0/G1 phase (MCF-7 cells [14]): 15%
- reduction of the fraction of cells in the S-phase (MCF-7 cells [14]): 30%
- IC50 (MCF-7 cells [3]): 17.7 µM
- cytochrome c levels in the cytosolic fraction [15]: significant increases
- cytochrome c mitochondrial levels [15]: concomitant decreases
- mitochondrial mass (MitoTracker Deep-Red) (MCF-7 cells [16]): decrease
- mitochondrial membrane potential (MitoTracker Orange) (MCF-7 cells [16]): decrease
- mitochondrial membrane potential per mitochondria (ratio Orange vs. Deep-Red) (MCF-7 cells [16]): significantly decreased
- ROS increase in the presence of NAC (HeLa cells [17]; 30 µM OI + NAC): no longer evident
- ROS generation (HeLa cells [17]; 30 µM, vs control): significantly stimulated
- apoptotic rate (TUNEL-positive cells) (MCF-7 cells [18]): 34.3%

The next lines start with results.

- IC50 (HeLa cells [1]): 159 µM
- IC50 (MCF-7 cells [3]): 409 µM
Compound: CC1(C)/C(=C\C(=O)N2CCOCC2)OC(=O)N1Cc1ccccc1 [OF]
- IC50 (MCF-10A cells [2]): 718 µM

- IC50 (HeLa cells [1]): 3.61 µM
- IC50 (MCF-7 cells [3]): 4.04 µM
Compound: COc1cccc2c1C(=O)c1c(O)c3c(c(O)c1C2=O)C[C@@](O)(C(=O)CO)C[C@@H]3O[C@H]1C[C@H](N)[C@H](O)[C@H](C)O1 [DOX, doxorubicin, reference compound]
- IC50 (MCF-10A cells [2]): 31.8 µM

From paper PMC7168333, “5-(Carbamoylmethylene)-oxazolidin-2-ones as a Promising Class of Heterocycles Inducing Apoptosis Triggered by Increased ROS Levels and Mitochondrial Dysfunction in Breast and Cervical Cancer” (Biomedicines, 2020)
